# System: pancreatic progenitor cells
# Test: Induction of differentiation from pancreatic progenitor cells into insulin-producing cells (floating culture)
# Format: cell-based
# Conditions: floating culture 7 days in the presence of YAC together with ALK5 inhibitor II, versus YAC; FIG. 6
# Experimental: Total RNA was isolated from the pancreatic exocrine cells and PSC cells using miRNeasy Mini Kit (QIAGEN). Reverse transcription reaction was carried out using High-Capacity cDNA Reverse Transcription Kit (Life Technologies) following the manufacturer's guideline. The resulting cDNA was used as a template to perform PCR with Platinum SYBR Green qPCR SuperMix UDG (Invitrogen). The expression level of the target gene was normalized with β-actin as the endogenous control.
# The cells were fixed with 4% paraformaldehyde for 15 minutes. The resultant was incubated with a blocking solution (Blocking One) (Nacalai Tesque, Kyoto) at 4° C. for 30 minutes, and then the cells were incubated with primary antibody at room temperature for an hour or at 4° C. overnight. Then, Alexa Fluor 488- or Alexa Fluor 594-labeled secondary antibody (Life Technologies) was used to detect the primary antibody. The nuclei were co-stained with Hoechst 33342 (Dojindo).
# The cells were suspended in 5% FBS-containing SHM+YAC (cell density: 1×10^4 to 1×10^6 cells/cm') and cultured on an ultra-low adsorption culture dish for 7 days. The medium was exchanged on the fourth day.
structure (smiles),measurement,value
Cc1cccc(-c2[nH]ncc2-c2ccc3ncccc3n2)n1 [ALK5 inhibitor II],mRNA expression of Insulin and GLUT2,further improvements

# Reference: patent publication US20210403874A1, “Method for Producing Stem/Precursor Cells, By Using Low Molecular Weight Compound, From Cells Derived From Endodermal Tissue or Organ” (Evia Life Sciences Inc., priority 2018, published 2021)
